In US11020409B2, “Broad antiviral therapy with membrane modifying oxysterols” (priority 2012, dated 2021):
Several values for one entry are separate records, joined by “and”; a condition that tells them apart may be missing. Equal values may be shown once. Read-outs that look alike come from different tables or passages of the source.

Tests used:
VSV = type: cell-based, vesicular stomatitis virus
VSV-GFP [1] = test: microbe, parasite or virus in culture; type: cell-based, vesicular stomatitis virus
HIV NL4-3 = type: cell-based, human-immunodeficiency virus
[2] = system: HIV NL4-3 encoding Vpr-BlaM (NL4-3/BlaM); type: cell-based, human-immunodeficiency virus
NL4-3-GFP = type: cell-based, human-immunodeficiency virus
[3] = system: Rift Valley Fever Virus ZH501 (RVFV); type: cell-based
HIV-IIIB pseudovirus = type: cell-based, human-immunodeficiency virus
adenovirus-GFP = type: cell-based
[4] = system: Nipah fusion (F) and attachment (G) proteins; type: cell-based, Nipah virus
pseudotyped HIV-IIIB = type: cell-based, human-immunodeficiency virus
VSV-G/BlaM = type: cell-based, vesicular stomatitis virus
VSVΔG-Luc/G pseudovirus = type: cell-based, vesicular stomatitis virus
[5] = system: replication-competent VSV; type: cell-based, vesicular stomatitis virus
HIV NL4-R3A = test: HIV infection in DKO-hu humanized mice; type: in vivo, HIV-1
[6] = system: RVFV (MP12 vaccine strain); type: cell-based, Rift Valley Fever Virus
Ebola Zaire-GFP (EBOV) = type: cell-based, Ebola virus
VSV-GFP [7] = type: cell-based, vesicular stomatitis virus
[8] = system: Nipah virus (Bangladesh strain); type: cell-based
[9] = system: Russian Spring-Summer Encephalitis Virus (RSSEV); type: cell-based

## CN(C)CCCN1c2ccccc2Sc2ccc(Cl)cc21 [CPZ, reference compound]
VSV
  VSV binding (VSV genomic RNA): did not inhibit binding significantly

## CC(C)CC[C@@H](O)[C@@H](C)[C@H]1CC[C@H]2[C@@H]3CC=C4C[C@@H](O)CC[C@]4(C)[C@H]3CC[C@]12C [22R-HC, 22-(R)-hydroxycholesterol, reference compound]
VSV-GFP [1]
  antiviral effect on VSV-GFP: did not confer antiviral effect

## CC(C)CC[C@H](O)[C@@H](C)[C@H]1CC[C@H]2[C@@H]3CC=C4C[C@@H](O)CC[C@]4(C)[C@H]3CC[C@]12C [22S-HC, 22-(S)-hydroxycholesterol, reference compound]
HIV NL4-3
  effect on HIV p24 expression: no effect

## c1cc(CN2CCCNCCNCCCNCC2)ccc1CN1CCCNCCNCCCNCC1 [AMD3100, reference compound]
[2]
  NL4-3/Bla entry: abrogated

## Cc1c(O)cccc1C(=O)N[C@@H](CSc1ccccc1)[C@H](O)CN1C[C@H]2CCCC[C@H]2C[C@H]1C(=O)NC(C)(C)C [Nelfinavir, reference compound]
NL4-3-GFP
  inhibition of p24 expression in supernatants: > 50%

## C[C@H](CCCC(C)(C)O)[C@H]1CC[C@H]2[C@@H]3CC=C4C[C@@H](O)CC[C@]4(C)[C@H]3CC[C@]12C [25HC, 25-hydroxycholesterol]
[3]
  replication of live RVFV: inhibited replication
HIV-IIIB pseudovirus
  inhibition of luciferase expression from single round infection: > 50%
adenovirus-GFP
  adenovirus coexpressing GFP measured by FACS: not affected
[4]
  syncytia formation: less syncytia formation
[4]; 2 uM
  reduction of fusion (nuclei per syncytia) relative to ethanol control: ~50%
[4]; 10 uM
  reduction of fusion (nuclei per syncytia) relative to ethanol control: ~60%
Pseudotyped HIV-IIIB
  inhibition of lateRT expression: > 99% and ~70%
NL4-3-GFP
  GFP expression from NL4-3-GFP (HIV transcription and translation): did not suppress GFP expression
  HIV p24 expression in supernatants of transfected cells (budding): did not affect
VSV-G/BlaM
  VSV-G/BlaM entry: dose-dependent inhibition
VSV
  VSV binding (VSV genomic RNA): did not inhibit binding significantly
VSVΔG-Luc/G pseudovirus
  VSV-G mediated infection, addition concurrently or 1 hpi: not significantly inhibited
  inhibition of VSVΔG-Luc expression, pre-treatment: greater inhibition
VSV-GFP [1]; Vesicular stomatitis virus, HEK-293T, read-out: IC50 of inhibition of VSV-GFP expression by FACs
  IC50: ~1000 nM
[5]
  reduction in the amount of VSV produced (viral genome copies by qRT-PCR): > 80%
[5]; 2.5 uM
  infectious titer of viruses from treated cells normalized for viral gRNA: equivalent plaque forming units
[2]
  decrease in NL4-3/Bla blue-green ratio at endpoint: ~60%
  reduction in cells expressing cleaved CCF2-AM by FACS: > 85%
HIV NL4-R3A; 50 mg/kg i.p. 12 h prior to infection and every day, 7 dpi, P<0.0001
  reduction of HIV RNA (copies/mL) in serum vs vehicle-treated mice: > 80%
HIV NL4-R3A; 50 mg/kg i.p. daily, 14 dpi
  HIV p24 in CD4 T-cells from spleens: significantly lower
HIV NL4-R3A; 50 mg/kg i.p. daily, CD3+ T-cell population, P<0.05
  HIV-mediated CD4 T-cell depletion in peripheral blood leukocytes: prevented HIV-mediated CD4 T-cell depletion
HIV NL4-R3A; 50 mg/kg i.p. daily, P=0.06
  HIV-mediated CD4 T-cell depletion in the spleen: less significant
[6]
  replication of RVFV (MP12), dose dependence: dose-dependent manner
HEK293T
  LDH in supernatants of cells: did not increase LDH
  LDH level: increased
Ebola Zaire-GFP (EBOV)
  replication of live Ebola (EBOV-Zaire): inhibited replication
VSV-GFP [7]
  VSV replication: reduced VSV replication
[8]
  replication of Nipah, dose dependence: dose-dependent manner
  replication of live Nipah (Bangladesh): inhibited replication
HIV NL4-3
  inhibition of p24 expression compared to vehicle: ~80%
[9]
  replication of live RSSEV: inhibited replication

## Cc1cn([C@H]2C[C@H](N=[N+]=[N-])[C@@H](CO)O2)c(=O)[nH]c1=O [AZT, reference compound]
HIV-IIIB pseudovirus
  inhibition of luciferase expression from single round infection: ~70%
